# Data from article PMC5503601 (Oncotarget, 2017).
# Several values for one entry are separate records, joined by “and”; a condition that tells them apart may be missing. Identical values can stand only once. Like-named read-outs stand apart in the source and are kept apart here.
# Columns and labels:
# [1] = molecular target: T1, TOPK (Homo sapiens, UniProt Q96KB5); assay: Microscale thermophoresis (MST) binding assay; settings: labeled TOPK 50 nM, 25°C, means ± SD for three experiments
# T1 construct: hexa-histidine; made in house; host or cells: Escherichia coli BL21 (DE)
# T1 sequence (Q96KB5 1-322): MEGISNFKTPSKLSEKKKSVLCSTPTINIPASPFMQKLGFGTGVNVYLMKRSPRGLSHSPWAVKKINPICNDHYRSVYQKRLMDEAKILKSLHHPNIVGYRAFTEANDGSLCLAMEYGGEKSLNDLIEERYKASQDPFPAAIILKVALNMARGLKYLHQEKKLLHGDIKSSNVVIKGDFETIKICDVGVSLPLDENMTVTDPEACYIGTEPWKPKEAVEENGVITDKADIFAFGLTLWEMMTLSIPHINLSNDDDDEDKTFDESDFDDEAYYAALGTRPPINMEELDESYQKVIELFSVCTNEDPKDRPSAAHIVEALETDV
# Description: To validate results of the virtual ligand screening, we employed microscale therm ophoresis method (MST) to assay the binding affinity between compounds and TOPK. This technology detected fluorescent changes of molecules during thermophoresis, to quantify protein-protein interactions or protein-small molecule interactions with high sensitivity and low sample cost.
# Human TOPK gene (Accssion number: NM_018492) was cloned into the pET26b vector (Novagen). The expression construct pET26b-TOPK was transformed into Escherichia coli strain BL21 (DE) (Invitrogen) and selected on kanamycin plates. The transformed cells were cultivated in Luria-Bertani (LB) media at 37°C in the presence of kanamycin until the optical density (OD) reached 0.8. Cells were then induced with 0.4 mM IPTG (isopropyl-β-D-1-thiogalactopyranoside) for 16 h at 20°C. The cells harvested by centrifugation were lysed by ultrasonication on ice in a buffer containing 20 mM Tris, pH 8.5, 200 mM NaCl, 5 mM mercaptoethanol, 0.1% TritonX-100, and 5% glycerol.
# Soluble hexa-histidine tagged TOPK was bound to Ni-agarose affinity resin (Qiagen), washed with buffer A (20 mM Tris, pH 8.5, 200mM NaCl, and 10 mM imidazole), and eluted with buffer B (20 mM Tris, pH 8.8, 250 mM NaCl, and 150 mM imidazole).
# Recombinant TOPK was labeled with the Monolith NT™ Protein Labeling Kit RED (Cat # L001) according to the supplied labeling protocol. Labeled TOPK was used in a concentration of 50 nM. The samples were diluted in a 20 mM HEPES (pH 7.4) and 0.5 (v/v) % Tween-20. The prazoles stocks were dissolved in 10% DMSO in a concentration of 1 mM. 1mM prazoles were used as the highest concentration for serial dilutions. After 10minutes incubation at room temperature, the samples were loaded into Monolith^TM standard-treated capillaries and the thermophoresis was measured at 25°C after 30 minutes incubation on a Monolith NT.115 instrument (NanoTemper Technologies, München, Germany). Laser power was set to 20% using 30 seconds on-time. The LED power was set to 100%. The dissociation constant Kd values were fitted by using the NTAnalysis software (NanoTemper Technologies, München, Germany).
# [2] = system: HCT116 cells; assay: Cell viability (cck8) assay, HCT116; type: cell-based; settings: Homo sapiens, HCT-116, read-out: IC50 for HCT116 cell activities
# Method: (§1) To estimate cell viability, human colon cancer HCT 116, ES-2, A549 and SW1990 cells (5000 cells/well) were seeded in 96-well plates for 24 h at 37°C in a 5% CO2 incubator. […] All experiments were performed in triplicate, and the mean absorbance values were calculated.
# [3] = system: HCT116 xenograft; assay: HCT116 xenograft mouse model, tumor growth; type: in vivo, CB-17/Icr-scid mice; settings: for tumor weight: control 1.45 ± 0.33 g
# Method: (§2) Estimated tumor volumes of both treating groups were less than that of the control group throughout the treatment. […] Animals were then scarified and the average tumor weights were measured and calculated. The tumor weight of the control group was 1.45 ± 0.33 g, whereas the tumor weights of low-dose and high-dose treated groups were 0.67 ± 0.21g and 0.52 ± 0.11g, respectively (Figure 5c), representing significant reduction.
# (§3) CB-17/Icr-scid mice were purchased from Beijing HFK Bioscience CO., LTD (Beijing, China). The animals were maintained under ‘specific pathogen free’ conditions. The mice were randomly divided into three groups: (i) vehicle group (n = 8); (ii) 150 mg/kg ilaprazole-treated group (n = 8); (III) 75 mg/kg ilaprazole-treated group. HCT 116 cells were inoculated subcutaneously (2 × 10^6 cells) into the left flank of each mouse in all groups. Treatment was started after 4 days of cell injection. The duration of the animal study was 19 days. The tumor volume was calculated from measurements of 3 diameters of the individual tumor based on the following formula:
# tumor volume (mm^3) = (length × width × height × 0.52). The mice were monitored until tumors reached 1 cm^3 total volume, at which the mice were euthanized and the tumors were extracted. The tumors were dissected and sent for immune-histochemical analysis.
# [4] = system: TOPK activity (phosphorylation of histone H3 Ser10) in HCT116 cells; assay: Western blot of phosphorylated histone H3 (Ser10), HCT116; type: cell-based, human
# Method: (§4) TOPK proteins were expressed mainly around chromosomal surfaces in mitotic cells, particularly at prophase and metaphase, so the histone was chosen as the substrate for TOPK activity evaluation. Some reports confirmed that TOPK could phosphorylate histone H3 in vitro and in vivo. […] (Figure 3a, 3b, Supplementary Figure 1a, 1b)
# (§5) Histones were extracted from cells by disrupting the cells with NETN buffer [150 mM NaCl, 1 mM EDTA, 20 mM Tris-HCl (pH 8.0), 0.5% nonionic detergent IGEPAL CA 630(NP-40), Sigma]. The insoluble fraction was pelleted for 5 minutes in a microcentrifuge (8,400 rpm). Nuclei were extracted with 0.1 M HCl to isolate the total histones. The samples were precipitated with 1 M Tris- HCl (pH 8.0) and then resuspended in ddH2O.
# (§6) The harvested cells were lysed with lysis buffer (50 mM Tris-HCl (pH 7.4), 150 mM NaCl, 1 mM EDTA, 1 mM EGTA, […], 5 mM phenylmethanesulfonyluoride (PMSF), 1 mM dithiolthreitol (DTT) containing 1% Triton X-100). Insoluble debris was removed by centrifugation at 12000 rpm for 15 minutes, and protein's content was determined using Bradford reagent (Bio-Rad, USA). Lysate protein (20-40 μg) was subjected to 10% SDS-PAGE and electrophoretically transferred to polyvinylidene difluoride membranes (PVDF) (Millipore, USA). […] Band density was quantified using the Image J software program (NIH).
# [5] = system: HCT116 cells; assay: Apoptosis by flow cytometry (Annexin V/propidium iodide), HCT116; type: cell-based, human; settings: HCT116, 50 μM, 24 h; control 2%
# Method: (§7) Cells were pre-treated with different concentrations of ilaprzole for 24 h, and then the cellular apoptosis was measured by using flow cytometry. […] Apoptotic cells were assessed by staining PBS washed cells with phycoerythrin (PE)-conjugated annexin-V (BD Pharmingen) for 10-15 minutes in incubation buffer (Annexin-V-FLUOS Staining Kit, Roche). Fluorescence was recorded by flow cytometry using the FACS Aria (BD Bio sciences).
# [6] = HCT116 xenograft mouse model, toxicity and body weight; type: in vivo, CB-17/Icr-scid mice
# Method: as §2
# as §3, with “formula: […]” for “formula:”
# [7] = system: shTOPK and shMock infected cancer cells; assay: Growth of shMock versus shTOPK infected cells (CCK8); type: cell-based, human; settings: 48 hours
# Description: To investigate the growth-promoting role of TOPK in cancer cells, the expression of endogenous TOPK was knocked down in four cancer cells. By lentiviral infection, HCT116, ES-2, A549 and SW1990 cell lines stably expressing low levels of TOPK (shTOPK) were established. As the control, cells were infected with shMock. The abundance of TOPK in these cells was confirmed by western blot analysis (Figure 2a).
# The effect of ilaprazolewas examined in shMock and knockdown cell lines with shTOPK. Cells were incubated for 48 hours and growth was determined by cck8 assay.
# “The target sequences of oligo siRNAs were as follows: 5′-[…] -3′ for TOPK to produce lentiviral particles.”
# The transfection medium was changed at 4 hours after transfection and then cells were cultured for 36 hours. The viral particles were harvested by filtration using a […] syringe filter, then combined with […] of polybrene (Millipore) and infected into 60% confluent HCT-116 cells overnight. The cell culture medium was replaced with fresh complete growth medium for 24 hours and then cells were selected with puromycin ([…]) for 36 hours. The selected cells were used for experiments.
# [8] = system: ES-2 cells; assay: Apoptosis by flow cytometry (Annexin V/propidium iodide), ES-2; type: cell-based, human; settings: ES-2, 50 μM, 24 h; control 2%
# Method: as §7
# [9] = rat, in vivo; cited from earlier work
# [10] = system: A549, HCT116, ES-2 and SW1990 cells; assay: Cell viability (cck8) assay, 4 TOPK-positive cancer cell lines; type: cell-based; settings: Homo sapiens; range over A549, HCT116, ES-2, SW1990; read-out: IC50 values, growth inhibition across the cell lines
# Method: TOPK protein levels were measured by western blot in cancer cell lines derived from various cancer types, such as lung cancer (A549), colon cancer (HCT116), human ovarian cancer (ES-2) and pancreatic cancer cell (SW1990).
# as §1
# [11] = system: TOPK activity (phosphorylation of histone H3 Ser10) in ES-2 cells; assay: Western blot of phosphorylated histone H3 (Ser10), ES-2; type: cell-based, human
# Method: as §4, §5, §6
# [12] = system: ES-2 cells; assay: Cell viability (cck8) assay, ES-2; type: cell-based; settings: Homo sapiens, read-out: IC50, growth of ES-2 cells
# Method: as §1
# [13] = parameters: method as in SciFinder Academic database; settings: ref SciFinder Academic database; cited from earlier work
# [14] = system: HCT116 cells; assay: Cell cycle distribution by flow cytometry, HCT116; type: cell-based, human; settings: HCT116, increasing doses, 48 hours
smiles,measurement,setting,value
"COc1ccnc(C[S+]([O-])c2nc3cc(-n4cccc4)ccc3[nH]2)c1C (centres unmarked) [Ilaprazole, ilaprazole]",Kd,[1]; read-out: Kd,111 ± 2.3 µM
same,IC50,[2],40 ± 0.6 µM
same,tumor weight,[3]; 75 mg/kg daily via gavage (low-dose),0.67 ± 0.21 g
same,tumor weight,[3]; 150 mg/kg daily via gavage (high-dose),0.52 ± 0.11 g
same,tumor volume,"[3]; 75 and 150 mg/kg daily via gavage, after 2 weeks' treatment",Significant decreases
same,phosphorylated histone H3 in tumor tissues (immunohistochemistry),[3]; ilaprazole-treated groups versus vehicle group,substantially decreased
same,phosphorylation of histone H3 (Ser10),[4],substantially attenuated in a dose-dependent manner
same,apoptotic death,[5],32.03%
same,"microstructures of sections of the liver, kidney and spleen",[6]; mice treated daily for 15 days,No significant damage
same,hepatotoxicity and nephrotoxicity,"[6]; mice, 75 and 150 mg/kg oral",no obvious hepatotoxicity and nephrotoxicity
same,mouse body weight,"[6]; mice, 75 and 150 mg/kg via gavage",no effect
same,growth inhibition of shTOPK cells compared with shMock cells,[7],resistant to the inhibitory effect
same,apoptotic death,[8],7.62%
same,LD50,[9],more than 5000 mg/kg
same,IC50,[10],30.1 to 148 µM
same,phosphorylation of histone H3 (Ser10),[11],substantially attenuated in a dose-dependent manner
same,IC50,[12],33.2 ± 1 µM
same,logP value,[13],2.882 ± 1.045
same,cell cycle distribution,[14],cell cycle arrested at the G1 phase
"COc1ccnc(C[S+]([O-])c2nc3ccc(OC(F)F)cc3[nH]2)c1OC (centres unmarked) [Pantoprazole, pantoprazole]",Kd,[1]; read-out: Kd,24 µM and 24.2 µM
same,IC50,[2],153 ± 8.5 µM
same,logP value,[13],1.571 ± 1.065
"CCSc1ccnc(C[S+]([O-])c2nc3ccccc3[nH]2)c1C (centres unmarked) [Disuprazole, disuprazole]",Kd,[1],n.b^c
same,IC50,[2],> 500 µM
"COCCCOc1ccnc(C[S+]([O-])c2nc3ccccc3[nH]2)c1C (centres unmarked) [Rabeprazole, rabeprazole]",Kd,[1]; read-out: Kd,324 µM
same,IC50,[2],> 500 µM
"COc1ccc2[nH]c([S+]([O-])Cc3ncc(C)c(OC)c3C)nc2c1 (centres unmarked) [Omeprazole, omeprazole]",Kd,[1]; read-out: Kd,174 µM
same,IC50,[2],348 ± 7.3 µM
"Cc1c(OCC(F)(F)F)ccnc1C[S+]([O-])c1nc2ccccc2[nH]1 (centres unmarked) [Lansoprazole, lansoprazole]",Kd,[1]; read-out: Kd,241 µM and 242 µM
same,IC50,[2],103 ± 4.1 µM
"COc1ccc2nc([S@@+]([O-])Cc3ncc(C)c(OC)c3C)[nH]c2c1 [Esomeprazole, esomeprazole]",Kd,[1],n.b^c
same,IC50,[2],> 500 µM
